According to patent US20030225152A1, “3-(Arylamino)methylene-1, 3-dihydro-2h-indol-2-ones as kinase inhibitors” (priority 2001, published 2003):
pIC50: −log10 of the molar value.

Tests used:
[1] = target: T1, cytoplasmic domain of the human VEGF receptor (VEGFR-2) (Homo sapiens, UniProt P35968); assay: KDR Assay; assay type: biochemical; conditions: His-VEGFR-2; 3.6 μM ATP
T1 construct: The cytoplasmic domain of the human VEGF receptor (VEGFR-2) was expressed as a Histidine-tagged fusion protein; Histidine tag
T1 sequence (P35968 786-1356): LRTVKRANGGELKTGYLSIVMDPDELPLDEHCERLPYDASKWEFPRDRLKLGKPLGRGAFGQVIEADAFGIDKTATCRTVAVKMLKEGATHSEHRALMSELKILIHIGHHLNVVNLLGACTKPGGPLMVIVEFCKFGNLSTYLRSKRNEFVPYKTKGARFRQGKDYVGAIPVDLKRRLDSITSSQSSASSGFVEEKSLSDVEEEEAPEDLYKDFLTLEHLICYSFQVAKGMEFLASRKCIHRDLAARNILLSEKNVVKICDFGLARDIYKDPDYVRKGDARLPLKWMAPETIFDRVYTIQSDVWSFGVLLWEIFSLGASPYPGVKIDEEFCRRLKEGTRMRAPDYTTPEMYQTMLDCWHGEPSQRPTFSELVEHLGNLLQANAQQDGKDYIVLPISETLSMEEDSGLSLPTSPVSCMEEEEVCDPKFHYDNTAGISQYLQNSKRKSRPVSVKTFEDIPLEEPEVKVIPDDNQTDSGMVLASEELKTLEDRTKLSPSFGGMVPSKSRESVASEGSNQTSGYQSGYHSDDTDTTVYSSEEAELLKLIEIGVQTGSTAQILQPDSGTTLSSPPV
How it was run: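 His-tagged human VEGFR-2 cytoplasmic domain from baculovirus-infected insect cells, acting on poly-Glu-Tyr (4:1)-coated plates with 3.6 μM ATP in Hepes pH 7.4 with MgCl2/MnCl2 and 5% final DMSO, 10 min at 25 °C. Phosphotyrosine detected by peroxidase-conjugated antibody ELISA at 492 nm; IC50 from blank-subtracted OD versus concentration.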

[2] = system: Laser-induced Choroidal Neovascularization (CNV); assay: Laser-induced Choroidal Neovascularization (CNV) in Rat (CNV Assay); assay type: in vivo; conditions: for CNV Assay % inhibition: corn oil, oral
Procedure: Laser-induced Choroidal Neovascularization (CNV) in Rat (CNV Assay). CNV was induced and quantified in this model as previously described (Edelman and Castro. Exp. Eye Res. 2000; 71:523-533). On day 0, male Brown Norway rats (200-300 g) were anesthetized with 100 mg/kg Ketamine and 10 mg/kg Xylazine, and pupils were dilated with 1% Tropicamide. Using the blue-green setting of a Coherent Novus Argon Laser, 3 laser bums (90 mW for 0.1 s; 100 μm diameter) were given to each eye between the retinal vessels around the optic nerve head. […]
On day 10, rats were sacrificed with 100% CO2, and blood vessels were labeled by vascular perfusion with 10 mg/ml FITC-dextran (MW 2×10^6). Using an epifluorescence microscope (20×) coupled to a spot digital camera and a PC, images were obtained from the flat mounts of the RPE-choroid-sclera from each eye, and the area occupied by hyperfluorescent neovessels within each laser lesion was measured using ImagePro 4 software.
(§1) To determine the dose required for 50% inhibition (ID50), the percent inhibition data was plotted as a function of oral dose, using the ‘best-fit’ analysis within MicroSoft Excel software. The ID50 value was verified visually by using the plotted data (horizontal line from 50% y value, at intersection with best-fit line drop vertical line to x axis (dose)).

[3] = system: VEGF-induced EBD extravasation; assay: VEGF-induced Dermal Extravasation in Guinea Pig (Miles Assay); assay type: in vivo; conditions: 75 mg/kg, corn oil, oral
Procedure: VEGF-induced Dermal Extravasation in Guinea Pig (Miles Assay). Male Hartley guinea pigs (300-600 g) were anesthetized with isofluorane, sheared, and given a single dose of drug or the respective vehicle. The guinea pigs were dosed orally unless indicated otherwise in Table 3. Ten minutes prior to the end of drug treatment, guinea pigs were anesthetized with isofluorane, and 0.5% Evans blue dye (EBD) in PBS (13-15 mg/kg dose of EBD) was injected intravenously. After 5 minutes, triplicate intradermal injections of 100 ng rhVEGF165 in 100 μl PBS and of 100 μl PBS alone were administered on the flank. After 20 minutes, each animal was euthanized with Pentosol, and the skin containing the intradermal injection sites was removed for image analysis.
Using an analog video camera coupled to a PC, an image of each trans-illuminated skin sample was captured, and the integrated optical density of each injection site was measured using ImagePro 4. For each skin sample, the difference between the mean optical density of the VEGF sites and mean optical density of the PBS sites is the measure of VEGF-induced EBD extravasation in that animal. These measured values were averaged per study group to determine the mean VEGF-induced EBD extravasation for each experimental condition, and the group means were then compared to assess inhibition of VEGF-induced EBD extravasation in the drug-treated groups relative to the vehicle-treated controls.
as §1

[4] = system: VEGF induced increases in intracellular calcium levels in HUVEC (human umbilical vein endothelial cells); assay: VEGF Stimulated Ca++ Signal in vitro (FLIPR); assay type: cell-based; conditions: Homo sapiens, 10 μM, VEGF 5 ng/mL
How it was run: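 HUVEC loaded with Fluo-4 (45 min, 37° C.), washed, then pre-incubated 30 min with compound (10 μM single dose or 0.01–10.0 μM; 0.1% DMSO) before 5 ng/mL VEGF. Fluorescence at 516 nm read by FLIPR; IC50 from % inhibition of max-min VEGF response.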

Row | Structure (SMILES) | pIC50 [1] | CNV Assay % inhibition ([2]; 80 mg/kg (sid)) [%] | Miles Assay % inhibition [3] [%] | inhibition at 10 µM [4] [%] | CNV Assay % inhibition ([2]; 8.6 mg/kg (sid)) [%] | CNV Assay % inhibition ([2]; 35 mg/kg (sid)) [%] | CNV Assay ID50 ([2]; oral dose for 50% inhibition) [mg/kg] | CNV Assay % inhibition ([2]; 40 mg/kg (sid)) [%]
1 | CCN(CC)CCCOc1ccc(NC=C2C(=O)Nc3cccc(C)c32)cc1 [Example 231, 3-{[4-(3-Diethylamino-propoxy)-phenylamino]-methylene}-4-methyl-1,3-dihydro-indol-2-one] | 7.15 | 85 | 93 | 93.3 |  |  |  | 
2 | CCN(CC)CCCOc1ccc(NC=C2C(=O)Nc3cc(F)ccc32)cc1 [Example 234, 3-{[4-(3-Diethylamino-propoxy)-phenylamino]-methylene}-6-fluoro-1,3-dihydro-indol-2-one] | 6.96 | 97 | 95 | 96.1 | 18 | 76 | 19 | 
3 | O=C1Nc2ccccc2C1=CNc1ccc(NCCN2CCOCC2)cc1 [Example 235, 3-{[4-(2-Morpholin-4-yl-ethylamino)-phenylamino]-methylene}-1,3-dihydro-indol-2-one] | 6.62 |  | 99 | 98.2 |  |  |  | 63
4 | O=C1Nc2cc(F)ccc2C1=CNc1ccc(OCCCN2CCCCC2)cc1 [Example 239, 6-Fluoro-3-{[4-(3-piperidin-1-yl-propoxy)-phenylamino]-methylene}-1,3-dihydro-indol-2-one] | 6.82 |  | 100 | 97.7 |  |  |  | 56
